# Laboratory results as given in patent US20260272936A1, “TREATMENT OF CANCER WITH A PARG INHIBITOR” (858 Therapeutics, Inc., priority 2023, published 2026).
# Key:
# [1] = system: T025OV ovarian cancer patient-derived xenograft; experiment: T025OV ovarian cancer PDX model; assay type: in vivo, NOG mice; settings: 75 mg/kg BID, 50 days
# Method: tissue from a treatment naïve patient with Stage 1 serous ovarian cancer was obtained from Discovery Life Sciences (Huntsville, AL, Case ID #200000835) and was expanded by subcutaneous implantation into female NOG mice. For tumor development, mice were inoculated subcutaneously on the right flank with isolated […] cells at 1×10^6 viable cells per mouse in 0.2 mL of DPBS mixed with Matrigel® Growth Factor Reduced Basement Membrane Matrix (1:1 ratio) (Corning®, Tewksbury, MA, USA, Cat #356237). Groups were established and drug treatment initiated when the mean tumor volume reached approximately 140-150 mm^3. […] For all studies, tumor volumes and body weights were measured twice weekly. […] Statistical analysis of end-of-study mean tumor volumes for the […] model was performed using an unpaired t-test with Welch's correction.
# [2] = system: RMUG-S ovarian cancer xenograft; experiment: RMUG-S ovarian cancer CDX model; assay type: in vivo, NOD SCID or NOG mice
# Method: The CDX model was established by subcutaneous inoculation of 1×10^7 viable RMUG-S cells into the right flank of NOD SCID or NOG mice. […] Compound 1 was administered to mice orally either once daily (QD) or twice daily (BID) for 32-50 days. Compound 1 was administered to mice continuously throughout the treatment period (7/7 days) or intermittently from Monday-Friday (5/7 days), or Monday-Thursday (4/7 days) during the treatment period.
# For all studies, tumor volumes and body weights were measured twice weekly. […] Statistical analysis of end-of-study mean tumor volumes for the T025OV model was performed using an unpaired t-test with Welch's correction.
# 5-HT2A receptor = target: T1, 5-HT2A receptor (Homo sapiens, UniProt P28223); experiment: Follow-on study, agonist and antagonist IC50; assay type: binding; settings: antagonist
# T1 construct: Eurofins (contract study)
# T1 sequence (P28223 whole entry): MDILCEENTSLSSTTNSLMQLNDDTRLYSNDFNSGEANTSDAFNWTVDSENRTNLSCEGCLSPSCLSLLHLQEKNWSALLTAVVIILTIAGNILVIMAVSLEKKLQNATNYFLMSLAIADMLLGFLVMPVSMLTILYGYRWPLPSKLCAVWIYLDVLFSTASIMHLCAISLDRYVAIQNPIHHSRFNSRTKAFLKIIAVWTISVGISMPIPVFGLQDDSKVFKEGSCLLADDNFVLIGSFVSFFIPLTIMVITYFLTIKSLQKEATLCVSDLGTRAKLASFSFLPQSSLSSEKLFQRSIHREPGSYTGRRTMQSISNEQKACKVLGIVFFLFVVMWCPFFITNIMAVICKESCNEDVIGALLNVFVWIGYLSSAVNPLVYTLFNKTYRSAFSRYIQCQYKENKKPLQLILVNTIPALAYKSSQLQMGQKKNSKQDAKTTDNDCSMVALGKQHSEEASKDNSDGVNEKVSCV
# [3] = system: HBCx-34 breast cancer patient-derived xenograft; experiment: HBCx-34 breast cancer PDX model; assay type: in vivo, Hsd: Athymic Nude-Foxn1nu mice; settings: 75 or 100 mg/kg BID, at day 15, transient
# Method: The PDX models were established by subcutaneous inoculation of HBCx-22 or HBCx-34 cells into Hsd: Athymic Nude-Foxn1nu mice. Breast tumor-bearing mice received estrogen diluted in drinking water (β-oestradiol, 8.5 mg/L) from the date of tumor inoculation until the end of the study to promote optimal growth of the ER^+ cell line. Groups of 10 animals each were established by random assignment. Tumor volumes and body weights were measured twice weekly. […] Statistical analysis of end-of-study tumor volumes was performed using the Kruskal-Wallis test with Dunn's multiple comparisons test (HBCx-34) or Brown-Forsythe test with Dunnett's T3 multiple comparisons test (HBCx-22).
# Compound 1 was administered to mice orally twice daily (BID) for 42 days at a dose of 75 or 100 mg/kg based on body weight. […] Compound 1 was administered to mice orally BID for 35 days at doses of 75 or 100 mg/kg based on body weight.
structure (smiles),measurement,setting,value
"[2H]C([2H])(c1cnn(C)c1)N1C(=O)c2cc(S(=O)(=O)NC3(C)CC3)ccc2N2C1=NC[C@H]2C [Compound 1, (R)-1-methyl-4-((1-methyl-1H-pyrazol-4-yl)methyl-d2)-N-(1-methylcyclopropyl)-5-oxo-1,2,4,5-tetrahydroimidazo[1,2-a]quinazoline-7-sulfonamide]",mean decrease in body weight,[1],4.6%
same,mean body weight gain over the treatment period,"[2]; first study, highest dose group",5%
same,tolerability (body weight),[2]; second study,generally well tolerated
same,IC50,5-HT2A receptor,21 µM
same,Kb,5-HT2A receptor; read-out: dissociation constant (KB),4.2 µM
same,maximum decrease in body weight,[3],approximately 11%
